Source: patent US20060276407A1, “Methods of treating hepatitis C virus” (Schering Corporation, priority 2005, published 2006)

Tested on: HCV-RNA viral load
Assay: Effect on HCV-RNA viral load, 14 days dosing of HCV positive genotype 1 interferon non responders (Example 3)
Type: in vivo
Procedure: Multiple escalating doses of compound of Formula Ia were administered for 14 days to HCV positive subjects who were genotype 1 Interferon-a (with or without ribavirin) non responders. In a randomized, placebo controlled, third party blind study, multiple doses of 100 mg BID, 200 mg BID, 400 mg BID, 400 mg TID, and 600 mg TID of compound of Formula Ia or placebo in a 3:1 ratio with or without food were evaluated. […]
Serial HCV-RNA data were evaluated for antiviral activity and for the change from baseline in the serum HCV RNA levels.

## CC(C)(C)NC(=O)N[C@H](C(=O)N1C[C@H]2[C@@H]([C@H]1C(=O)NC(CC1CCC1)C(=O)C(N)=O)C2(C)C)C(C)(C)C (mixture of isomers) [Formula Ia, (1 R, 5S)-N-[3-Amino-1-(Cyclobutylmethyl)-2,3-Dioxopropyl]-3-[2(S)-[[[(1,1-Dimethylethyl)Amino]Carbonyl]Amino]-3,3-Dimethyl-1-Oxobutyl]-6,6-Dimethyl-3-Azabicyclo[3.1.0]Hexan-2(S)-Carboxamide]
400 mg TID, 14 days
  Viral load (HCV-RNA) reduction from baseline, average minimum reduction: 2 logs
All patients
  HCV-RNA following discontinuation of the 14-day treatment: returned to baseline levels
